Source: US4831033A (City of Hope, priority 1988, dated 1989)

Key:
[1] = tested on: K^+ transport, P3 membrane fractions from whole brains of Swiss mice; test: K^+ transport (^86 Rb uptake) in P3 membrane fractions; assay type: biochemical; details: for K^+ Transport Relative Potency: relative to amodiaquin; for concentration inhibiting K^+ transport (selection criterion): submillimolar concentrations
Protocol: To obtain the data set forth in Table I, K^+ -transport was measured using P3 membrane fractions prepared from whole brains of Swiss mice. […] The resulting supernatant was centrifuged at 17,000 g for 15 minutes, and the supernatant from the latter was centrifuged at 70,000 g for 1 hour to pellet the P3 fraction. The P3 pellet was washed by resuspension in 50 mM Tris-citrate (pH 7.3). After 10 minutes on ice, the suspension was centrifuged at 70,000 g for 10 minutes. This washing procedure was repeated twice using distilled water for the resuspension. […] The suspension (2-3 mg protein/ml) was stabilized on ice for 1 hour prior to use. Uptake of ^86 Rb (radioactive) was used to assess the K^+ -transport of the P3 articles. Many published experiments have shown the ^86 Rb, with a half-life 36 times longer than ^42 K, is a suitable tracer for K. Rb permeates neuronal K channels as well as does K itself.
After filtration of the samples, the filters were washed rapidly three times with 10^-3 M triethanolamine containing 0.1M RbCl (non-radioactive) and counted in ACS liquid scintillation cocktail (Amersham). In calculating the results, the uptake found in the presence of 0.1M non-radioactive RbCl was subtracted from that found in the presence of various concentrations of the test substances in the presence of 10^-6 M ^86 RbCl alone. […] Between 0.2 and 0.5 mg/ml usually were employed. The results were normalized by calculating them as percentages of the uptake observed with 10^-6 M ^86 RbCl alone.

Acetylcholinesterase = molecular target: T1, Acetylcholinesterase (Electrophorus electricus, UniProt O42275); test: Acetylcholinesterase activity, acetylthiocholine substrate, colorimetric (Ellman); assay type: biochemical, electric eel; details: for Acetylcholinesterase Activity Relative Potency: relative to amodiaquin
T1 construct: prepared from the electric organ of the electric eel; from tissue; host or cells: electric organ of the electric eel
Protocol: Cholinesterase activity reported in Table I was measured by a standard procedure. The enzyme employed was prepared from the electric organ of the electric eel. It is known to have the same properties as the enzyme of mammalian nervous tissue. Acetylthiocholine was used as substrate.
Inhibitory potency of substances was determined by measuring enzyme activity in the absence and presence of varying concentrations of the test substances.

T1 sequence (O42275 24-633): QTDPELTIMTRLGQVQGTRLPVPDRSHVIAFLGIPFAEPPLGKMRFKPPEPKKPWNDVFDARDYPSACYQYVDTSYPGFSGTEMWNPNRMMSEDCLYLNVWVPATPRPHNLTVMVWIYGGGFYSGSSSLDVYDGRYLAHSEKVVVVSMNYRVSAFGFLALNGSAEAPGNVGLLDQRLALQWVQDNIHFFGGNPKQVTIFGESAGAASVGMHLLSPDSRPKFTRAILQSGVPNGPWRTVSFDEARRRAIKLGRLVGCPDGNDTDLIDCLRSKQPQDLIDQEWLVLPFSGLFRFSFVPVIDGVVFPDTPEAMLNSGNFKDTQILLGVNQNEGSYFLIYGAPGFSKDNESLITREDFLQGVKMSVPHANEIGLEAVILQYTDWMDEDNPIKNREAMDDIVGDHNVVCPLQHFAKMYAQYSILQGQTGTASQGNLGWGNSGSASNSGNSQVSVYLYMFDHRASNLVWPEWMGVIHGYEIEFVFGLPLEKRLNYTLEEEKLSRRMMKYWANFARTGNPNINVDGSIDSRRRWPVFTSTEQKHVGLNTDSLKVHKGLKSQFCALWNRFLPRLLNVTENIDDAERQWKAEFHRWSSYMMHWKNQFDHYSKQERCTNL

Compound: Nc1c2ccccc2nc2ccccc12 [9-aminoacridine]
- K^+ Transport Rank Order [1]: 2
- K^+ transport inhibition compared with amodiaquin (in words) [1]: approximately one-half

Compound: CCN(CC)Cc1cc(Nc2ccnc3cc(Cl)ccc23)ccc1O [Amodiaquin, amodiaquin]
- K^+ Transport Rank Order [1]: 1
- K^+ transport inhibition compared with amodiaquin (in words) [1]: ranked first
- cholinesterase inhibitory potency compared with amodiaquin (in words) (Acetylcholinesterase): most effective cholinesterase inhibitor of this group

Compound: CCN(CC)CCCC(C)Nc1ccnc2cc(Cl)ccc12 (stereo not shown) [Chloroquine, chloroquine]
- K^+ Transport Rank Order [1]: 4
- K^+ transport inhibition compared with amodiaquin (in words) [1]: approximately one-twentieth as active
- K^+ Transport Relative Potency [1]: 0.067
- concentration inhibiting K^+ transport (selection criterion) [1]: ≤ 10^-3 M
- Acetylcholinesterase Activity Rank Order (Acetylcholinesterase): 5(4)
- cholinesterase inhibitory potency compared with amodiaquin (in words) (Acetylcholinesterase): less than one-thousandth
- Acetylcholinesterase Activity Relative Potency (Acetylcholinesterase): 0.001

Compound: CCN(CC)CCCC(C)Nc1c2ccc(Cl)cc2nc2ccc(OC)cc12 (stereo not shown) [Quinacrine, quinacrine]
- K^+ Transport Rank Order [1]: 3
- K^+ transport inhibition compared with amodiaquin (in words) [1]: approximately one-half
- K^+ Transport Relative Potency [1]: 0.44
- concentration inhibiting K^+ transport (selection criterion) [1]: ≤ 10^-3 M
- Acetylcholinesterase Activity Rank Order (Acetylcholinesterase): 4(5)
- cholinesterase inhibitory potency compared with amodiaquin (in words) (Acetylcholinesterase): less than one-thousandth
- Acetylcholinesterase Activity Relative Potency (Acetylcholinesterase): 0.001
